Laboratory results taken from US8058242B2, “Chimeric proteins with natriuretic activity” (The University of Queensland, priority 2004, dated 2011).
Positions of bridges follow the written chain, without caps; N, C: chain ends. Residues, ends and D or L forms follow the SMILES beside them.

How the values were obtained:
[1] = target: Endopeptidase (NEP) (EC 3.4.24.11) (Homo sapiens, UniProt P08473); experiment: Stability to enzymatic degradation by NEP (Examples 7, 16); type: in vitro ADME; details: over the 360 min measurement period
Procedure: (§1) The incubation buffer contained 100 mM Tris/HCl and 150 mM NaCl and the pH was adjusted to 7.2-7.4. In each assay, 100 μl of peptide [500 μM] was incubated with 300 μl buffer (with 500 ng Endopeptidase (NEP) or 10 μg Plasmin) at 37° C. 50 μl aliquots were taken at times 5 min, 30 min, 60 min, 90 min, 180 min and 24 h. The reaction was quenched by heating to 100° C. for 4 min and the remaining peptide concentrations measured by RP-HPLC. Note that the levels of Plasmin required to degrade these peptides was several thousands time the levels present in human plasma.
(§2) The stability of TDT and was investigated using the same enzymatic degradation assays (NEP, plasmin, pepsin) disclosed in Example 7. […] It is also evident that the increased NEP stability cannot be explained by the length of the tail region alone as the NEP cleavage site residues at the N-terminal end of the loop region.

Plasmin = target: T1, Plasmin (Homo sapiens, UniProt P00747); experiment: Stability to enzymatic degradation by plasmin (Examples 7, 16); type: in vitro ADME
T1 construct: with 500 ng Endopeptidase (NEP) or 10 μg Plasmin
Procedure: as §1, §2

pepsin = experiment: Stability to enzymatic degradation by pepsin (Example 16); type: in vitro ADME
Source text: as §2

[2] = target: T2, NPR-A signaling in HeLa cells (Homo sapiens, UniProt P16066); experiment: cGMP AlphaScreen assay in HeLa cells (Examples 14, 15); type: cell-based; details: 30 minutes at 37° C.
T2 construct: Cyclic GMP (cGMP) elevation in HeLa cells in response to Natriuretic Peptide stimulation; endogenous in cells; host or cells: HeLa cells
T2 sequence (P16066 33-1061): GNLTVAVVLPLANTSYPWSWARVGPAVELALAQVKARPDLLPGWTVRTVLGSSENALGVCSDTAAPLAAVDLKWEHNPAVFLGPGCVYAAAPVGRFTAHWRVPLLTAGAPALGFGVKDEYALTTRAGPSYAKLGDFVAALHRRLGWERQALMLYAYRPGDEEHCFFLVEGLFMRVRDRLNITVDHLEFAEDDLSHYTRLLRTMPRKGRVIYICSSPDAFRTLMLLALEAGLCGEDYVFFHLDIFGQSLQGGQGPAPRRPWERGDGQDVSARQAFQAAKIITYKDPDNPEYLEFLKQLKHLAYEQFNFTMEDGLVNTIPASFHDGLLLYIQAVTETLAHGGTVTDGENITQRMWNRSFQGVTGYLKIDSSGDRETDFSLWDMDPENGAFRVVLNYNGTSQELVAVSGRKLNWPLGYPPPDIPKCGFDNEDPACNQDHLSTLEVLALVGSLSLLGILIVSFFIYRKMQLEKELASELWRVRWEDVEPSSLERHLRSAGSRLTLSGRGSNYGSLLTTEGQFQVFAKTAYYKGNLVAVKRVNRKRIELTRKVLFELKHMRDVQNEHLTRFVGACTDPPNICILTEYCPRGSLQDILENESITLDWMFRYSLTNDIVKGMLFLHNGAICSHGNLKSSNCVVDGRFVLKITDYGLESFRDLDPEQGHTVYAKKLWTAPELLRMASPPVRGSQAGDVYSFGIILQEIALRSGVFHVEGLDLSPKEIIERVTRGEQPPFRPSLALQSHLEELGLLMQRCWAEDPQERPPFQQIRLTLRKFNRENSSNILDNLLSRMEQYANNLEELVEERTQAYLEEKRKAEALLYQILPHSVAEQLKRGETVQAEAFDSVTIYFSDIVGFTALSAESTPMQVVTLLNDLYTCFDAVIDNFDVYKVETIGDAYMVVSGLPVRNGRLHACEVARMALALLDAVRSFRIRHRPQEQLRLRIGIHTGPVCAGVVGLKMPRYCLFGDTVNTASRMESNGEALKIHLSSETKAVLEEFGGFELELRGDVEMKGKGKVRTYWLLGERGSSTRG
Procedure: HeLa cells were maintained in RPMI cell culture medium (Gihco Invitrogen, Mt Waverley, Australia) supplemented with 10% Foetal Bovine Serum (Cambrex Bio Science, Rockland, USA). Upon reaching confluence, cells were sub-cultured such that they would be 70-90% confluent at time of assay.
Cyclic GMP (cGMP) elevation in HeLa cells in response to Natriuretic Peptide stimulation was performed using a cGMP AlphaScreen kit (PerkinElmer, Boston, USA), as follows for normal experiments: Cells were detached, pelleted to remove growth medium, and resuspended in Stimulation Buffer (Hank's Balanced Salt Solution, 0.1% Bovine Serum Albumin [BSA] (Sigma-Aldrich, Castle Hill, Australia), 1 mM 3-Isobutyl-1-methylxanthine [IBMX] (Sigma-Aldrich, Castle Hill, Australia)) and diluted to 6×10^6 cells per mL (30 000 cells per 5 μL). 5 μL of cells were added to wells of white 384-well OptiPlates (PerkinElmer, Boston, USA), and stimulated with increasing concentrations of peptide for 30 minutes at 37° C. Cells were then lysed with 10 μL Lysis buffer (dH2O, 0.3% Tween-20 (Sigma-Aldrich, Castle Hill, Australia), 5 mM HEPES (JRH Biosciences, Kansas, USA) and 0.1% BSA) and 5 μL acceptor bead mix (10 μL per mL acceptor beads and 1/3000 anti-cGMP antibody (BioVision, Mountain View, USA) in lysis buffer) added per well in the dark. Plates were incubated in the dark at room temperature for 30 minutes, then 5 μL donor bead mix (10 μL per ML donor beads and 0.3 nM biotinylated cGMP in lysis buffer) was added per well in the dark and the plate incubated overnight at room temperature. Signal was read using an EnVision plate reader (PerkinElmer, Boston, USA) and data analysed using Prism software. The cGMP standard curve was performed as per manufacturer's instructions.
To examine whether TNPc and synthetic analogs produced in the inventors' laboratory could stimulate NPR-A signaling, cGMP elevations in HeLa cells in response to these peptides were measured, as described above.

T1 sequence (P00747 97-580 partner limits assumed, species assumed): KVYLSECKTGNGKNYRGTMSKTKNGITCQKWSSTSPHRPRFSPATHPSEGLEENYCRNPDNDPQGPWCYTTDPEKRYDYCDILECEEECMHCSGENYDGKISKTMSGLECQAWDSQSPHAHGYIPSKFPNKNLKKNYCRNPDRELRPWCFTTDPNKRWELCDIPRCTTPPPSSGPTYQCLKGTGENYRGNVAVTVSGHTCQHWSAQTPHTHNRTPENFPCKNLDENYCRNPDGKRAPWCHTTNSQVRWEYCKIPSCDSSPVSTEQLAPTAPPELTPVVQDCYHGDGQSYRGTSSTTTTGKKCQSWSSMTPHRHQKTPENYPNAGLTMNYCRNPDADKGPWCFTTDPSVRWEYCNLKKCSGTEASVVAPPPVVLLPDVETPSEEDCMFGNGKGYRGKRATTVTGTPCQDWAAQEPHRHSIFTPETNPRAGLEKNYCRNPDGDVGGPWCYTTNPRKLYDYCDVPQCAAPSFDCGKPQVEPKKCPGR
T1 sequence (P00747 581-810 limits assumed, species assumed): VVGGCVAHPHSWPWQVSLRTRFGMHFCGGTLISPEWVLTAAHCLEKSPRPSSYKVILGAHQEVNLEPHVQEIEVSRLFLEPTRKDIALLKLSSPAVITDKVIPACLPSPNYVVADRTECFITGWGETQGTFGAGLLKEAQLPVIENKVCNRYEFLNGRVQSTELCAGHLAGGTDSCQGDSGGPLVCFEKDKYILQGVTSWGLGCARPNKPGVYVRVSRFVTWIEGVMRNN
Chain of Endopeptidase (NEP) (EC 3.4.24.11) (P08473 whole entry): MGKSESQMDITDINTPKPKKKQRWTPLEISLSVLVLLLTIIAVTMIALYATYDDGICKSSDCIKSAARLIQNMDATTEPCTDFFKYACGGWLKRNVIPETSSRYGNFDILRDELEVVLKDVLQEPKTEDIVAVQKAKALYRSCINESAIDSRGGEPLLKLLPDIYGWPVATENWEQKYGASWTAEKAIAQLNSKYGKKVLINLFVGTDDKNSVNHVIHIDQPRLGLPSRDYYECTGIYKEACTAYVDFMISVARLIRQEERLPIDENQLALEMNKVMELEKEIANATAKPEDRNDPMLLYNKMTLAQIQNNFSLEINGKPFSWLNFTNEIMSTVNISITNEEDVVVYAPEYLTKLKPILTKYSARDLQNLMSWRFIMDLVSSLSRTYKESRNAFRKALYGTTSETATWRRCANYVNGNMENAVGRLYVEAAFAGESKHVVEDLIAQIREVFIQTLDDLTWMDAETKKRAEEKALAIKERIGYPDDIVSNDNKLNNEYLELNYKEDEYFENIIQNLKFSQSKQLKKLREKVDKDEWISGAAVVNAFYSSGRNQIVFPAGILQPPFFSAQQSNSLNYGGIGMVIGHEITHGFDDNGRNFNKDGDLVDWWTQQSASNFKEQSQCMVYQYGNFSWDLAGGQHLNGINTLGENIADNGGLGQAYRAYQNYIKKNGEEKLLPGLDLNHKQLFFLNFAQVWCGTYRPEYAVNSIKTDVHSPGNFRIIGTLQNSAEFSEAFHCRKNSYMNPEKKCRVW

For `CC[C@H](C)[C@H](NC(=O)[C@H](CCCCN)NC(=O)[C@H](CO)NC(=O)[C@H](CC(=O)O)NC(=O)[C@@H](N)CO)C(=O)NCC(=O)N[C@@H](CC(N)=O)C(=O)NCC(=O)N[C@H]1CSSC[C@@H](C(=O)N[C@@H](CC(N)=O)C(=O)N[C@@H](CCCNC(=N)N)C(=O)N[C@H](C(=O)N[C@@H](CCSC)C(=O)N[C@@H](CCC(N)=O)C(=O)N[C@@H](CC(N)=O)C(=O)N2CCC[C@H]2C(=O)N2CCC[C@H]2C(=O)N[C@@H](CCCCN)C(=O)N[C@@H](CCCCN)C(=O)N[C@@H](Cc2ccccc2)C(=O)N[C@@H](CO)C(=O)NCC(=O)N[C@@H](CCC(=O)O)C(=O)O)[C@@H](C)CC)NC(=O)CNC(=O)[C@H](CC(C)C)NC(=O)[C@H](CC(N)=O)NC(=O)[C@H](CO)NC(=O)[C@H](C(C)C)NC(=O)[C@H](Cc2c[nH]cn2)NC(=O)[C@H](CC(N)=O)NC(=O)[C@H]([C@@H](C)CC)NC(=O)[C@H](CCCNC(=N)N)NC(=O)[C@H](CC(=O)O)NC(=O)[C@H]([C@@H](C)CC)NC(=O)[C@H](CCCCN)NC(=O)[C@H](Cc2c[nH]cn2)NC(=O)CNC(=O)[C@H](Cc2ccccc2)NC1=O` [TDT] (H-SDSKIGNGCFGHKIDRINHVSNLGCNRIMQNPPKKFSGE-OH; disulfide 9-25), the “degradation by NEP” value [1] was “minimal degradation”, the “stability against plasmin compared with ANP” value (Plasmin) was “more stable than ANP” and the “stability against pepsin compared with ANP” value (pepsin) was “more stable than ANP”. The EC50 ([2]; EC50, cGMP accumulation in HeLa cells) was 70.4 nM and the EC50 ([2]; −Log10EC50 (pEC50) ± Standard Error, cGMP accumulation in HeLa cells) was 61.9 nM.
